This passage reports IC50 results from patent publication US7166609B2, “Pyrimidine-4,6-dicarboxylic acid diamides for selectively inhibiting collagenases” (Sanofi-Aventis Deutschland GmbH, priority 2002, dated 2007).

Molecules are shown by their SMILES.

For orientation: IC50 means the point on the concentration scale where inhibition reaches its midpoint.

The target of one assay is T1, catalytic domain of human collagenase 3 (MMP-13) (Homo sapiens, UniProt P45452).
T1 construct: Determining the enzyme activity of the catalytic domain of human collagenase 3 (MMP-13); purchased INVITEK, Berlin 30 100 803
The experiment in a line: Enzyme activity of the catalytic domain of human collagenase 3 (MMP-13), fluorogenic substrate. The format is biochemical.
Conditions: not given
On the procedure: Determining the enzyme activity of the catalytic domain of human collagenase 3 (MMP-13).
Activating the proenzyme:
2 parts by volume of proenzyme are incubated with 1 part by volume of APMA solution at 37° C. for 1.5 hours. The APMA solution is prepared from a 10 mmol/L solution of p-aminophenylmercuric acetate in 0.1 mmol/L NaOH by diluting with 3 parts by volume of tris/HCl buffer, pH 7.5 (see below). The pH is adjusted to between 7.0 and 7.5 by adding 1 mmol/L HCl. After the enzyme has been activated, it is diluted to a concentration of 1.67 μg/ml using the tris/HCl buffer.
In order to measure the enzyme activity, 10 μL of enzyme solution are incubated for 15 minutes with 10 μL of a 3% (v/v) buffered solution of dimethyl sulfoxide (reaction 1). In order to measure the enzyme inhibitor activity, 10 μL of enzyme solution are incubated with 10 μL of a 3% (v/v) buffered solution of dimethyl sulfoxide containing the enzyme inhibitor (reaction 2).
In the case of both reaction 1 and reaction 2, the enzyme reaction is monitored by fluorescence spectroscopy (328 nm (extinction)/393 nm (emission)) after adding 10 μL of a 3% (v/v) aqueous solution of dimethyl sulfoxide containing 0.75 mmol of the substrate/L.
The enzyme activity is depicted as increase in extinction/minute.
The effect of the inhibitor is calculated as a percentage inhibition using the following formula: % inhibition=100−[(increase in extinction/minute in reaction 2)/(increase in extinction/minute in reaction 1)×100].
The IC50, i.e. the inhibitor concentration which is required for inhibiting the enzyme activity by 50%, is determined graphically by plotting the percentage inhibitions at different inhibitor concentrations.
The buffer solution contains 0.05% Brij (Sigma, Deisenhofen, Germany) and 0.1 mol of tris/HCl/L, 0.1 mol of NaCl/L and 0.01 mol of CaCl2/L (pH=7.5). The enzyme solution contains 1.67 μg of the enzyme domain/mL.
The substrate solution contains 0.75 mmol/L of the fluorogenic substrate (7-methoxycoumarin-4-yl)acetyl-Pro-Leu-Gly-Leu-3-(2′,4′-dinitrophenyl)-L-2,3-diaminopropionyl-Ala-Arg-NH2 (Bachem, Heidelberg, Germany).
For `O=C1CCN(C(=O)c2ccc(CNC(=O)c3cc(C(=O)NCc4ccc5c(c4)CCO5)ncn3)cc2)CC1` [Example 66], it took 10 nM to reach half-maximal inhibition (IC50).

Still in this assay, the particulars now being: catalytic domain, activated proenzyme, pH 7.5; read-out: IC50 MMP13.
As to `COc1cccc(CNC(=O)c2cc(C(=O)NCc3ccc(NC(=O)CN4CCCC4)cc3)ncn2)c1` [Example 128], the IC50 is 60 nM. As for `Cc1cc(CNC(=O)c2cc(C(=O)NCc3ccc(C(=O)NCCO)cc3)ncn2)ccc1F` [Example 76], the IC50 worked out at 23 nM. As to `O=C(NO)c1ccc(CNC(=O)c2cc(C(=O)NCc3ccc4c(c3)CCO4)ncn2)cc1` [Example 94], the IC50 was 20 nM.

As to `COC(=O)CNC(=O)c1ccc(CNC(=O)c2cc(C(=O)NCc3ccc(F)c(C)c3)ncn2)cc1` [Example 106], the IC50 turned out to be 40 nM.

Regarding `O=C(NCc1ccncc1)c1ccc(CNC(=O)c2cc(C(=O)NCc3ccc4c(c3)CCO4)ncn2)cc1` [Example 82], the IC50 came out at 30 nM. Consider `N#CNC(=O)c1ccc(CNC(=O)c2cc(C(=O)NCc3ccc4c(c3)CCO4)ncn2)cc1` [Example 85], for which the IC50 is 3.5 nM. With `COc1cccc(CNC(=O)c2cc(C(=O)NCc3ccc(NC(=O)NC4CCCCC4)cc3)ncn2)c1` [Example 136], the IC50 stood at 20 nM. For `COc1cccc(CNC(=O)c2cc(C(=O)NCc3ccc(NC(=O)NS(=O)(=O)c4ccccc4)cc3)ncn2)c1` [Example 121], the 50% inhibitory concentration (IC50) came to 30 nM.

As for `Cc1cc(CNC(=O)c2cc(C(=O)NCc3ccc(C(=O)N4CCOCC4)cc3)ncn2)ccc1F` [Example 87], the 50% inhibitory concentration (IC50) amounted to 24 nM.
